# Experimental data published in EP1000624A1, “Use of DOP as antioxidant, anti-ageing additive and medicament” (priority 1998, dated 2000).
# What was measured:
# [1] = acute toxicity, peroral; parameters: species or system Ratte; conditions: in vivo, po, rat
# Method: Die akute Toxizität von DOP wurde peroral an der Ratte bestimmt; die letale Dosis, bei der 50% der Versuchstiere verenden (LD50), beträgt mehr als 2000 mg/kg.
# [2] = system: Kornea, Iris und Konjunktiva; test: eye irritation test according to EU Commission 93/21/EEC; type: in vivo, Kaninchen; conditions: rabbit; effects on cornea, iris and conjunctiva after 24, 48 and 72 hours
# Source text: (§1) Um festzustellen, ob DOP Reizungen der Augen oder der Haut hervorrufen kann, wurde am Kaninchen ein Augenreiztest und ein Hautreiztest durchgeführt, beide gemäß der Verordnung der EU-Kommission Nr. 93/21/EEC vom 27.04.1993.
# [3] = system: Haut; test: skin irritation test according to EU Commission 93/21/EEC; type: in vivo, Kaninchen; conditions: rabbit; after 24, 48 and 72 hours
# Source text: as §1
compound,measurement,setting,value
"O=[PH]1Oc2ccccc2-c2ccccc21 (stereo not shown) [DOP, (6H)-Dibenz-(c,e)(1,2)-oxaphosphorin-6-on]",LD50,[1],> 2000 mg/kg
same,Augenreiztest: Einstufung,[2],nicht augenreizend
same,Hautreiztest: Einstufung,[3],nicht hautreizend
same,Hautreiztest: Erythembildung / Oedembildung,[3],weder eine Erythembildung noch eine Oedembildung
